{"source": "patent US7259003B2", "about": "“Escherichia bacteria transformed with a yedA homolog to enhance L-amino acid producing activity, and methods for producing an L-amino acid using same” (priority 2001, dated 2007); also: key: +: good growth; −: no growth", "format_in_all_cases": "cell-based", "details_in_all_cases": "37° C.", "key": {"[1]": {"system": "E. coli strain TG1 (pUC19)", "assay": "Growth of E. coli TG1 (pUC19) on M9 glucose minimal agar containing amino acids and amino acid analogs", "procedure": "(§1) The pYEDA1 and pYEDA2 plasmids and the pUC19 and pAYCTER3 vectors were introduced into E. coli strain TG1. Thus the strains TG1 (pYEDA1), TG1 (pYEDA2), TG1 (pUC19) and TG1 (pAYCTER3) were obtained.\n(§2) Then the ability of these strains to grow in the presence of amino acids and amino acid analogues for each strain were determined on M9 glucose minimal agar plates containing graded concentrations of inhibitor. The plates were spotted with 10^6 to 10^7 cells from an overnight culture grown in a minimal medium (supplemented with 100 μg/ml of ampicillin for plasmid strains). The growth was estimated after 44 h incubation at 37° C."}, "[2]": {"system": "E. coli strain TG1 (pYEDA1)", "assay": "Growth of E. coli TG1 (pYEDA1) on M9 glucose minimal agar containing amino acids and amino acid analogs", "procedure": "as §1, §2"}, "[3]": {"system": "E. coli strain TG1 (pYEDA2)", "assay": "Growth of E. coli TG1 (pYEDA2) on M9 glucose minimal agar containing amino acids and amino acid analogs", "procedure": "as §1, §2"}}, "data": [{"smiles": "N[C@@H](CCO)C(=O)O", "note": "[L-homoserine]", "values": [{"measurement": "Growth after 44 h TG1 (pUC19)", "setting": "[1]; substrate 3.0 mg/ml", "result": "−"}, {"measurement": "Growth after 44 h TG1 (pYEDA1)", "setting": "[2]; substrate 3.0 mg/ml", "result": "+"}]}, {"smiles": "NCCSC[C@H](N)C(=O)O", "note": "[S(2-aminoethyl)-L-cysteine]", "values": [{"measurement": "Growth after 44 h TG1 (pUC19)", "setting": "[1]; substrate 0.4 mg/ml", "result": "−"}, {"measurement": "Growth after 44 h TG1 (pYEDA1)", "setting": "[2]; substrate 0.4 mg/ml", "result": "+"}, {"measurement": "Growth after 44 h TG1 (pYEDA2)", "setting": "[3]; substrate 0.4 mg/ml", "result": "+"}]}, {"smiles": "NC(Cc1ccc(F)cc1)C(=O)O", "note": "(racemic) [p-fluoro-DL-phenylalanine]", "values": [{"measurement": "Growth after 44 h TG1 (pUC19)", "setting": "[1]; substrate 1.0 mg/ml", "result": "−"}, {"measurement": "Growth after 44 h TG1 (pUC19)", "setting": "[1]; substrate 2.0 mg/ml", "result": "−"}, {"measurement": "Growth after 44 h TG1 (pYEDA1)", "setting": "[2]; substrate 1.0 mg/ml", "result": "+"}, {"measurement": "Growth after 44 h TG1 (pYEDA1)", "setting": "[2]; substrate 2.0 mg/ml", "result": "+"}, {"measurement": "Growth after 44 h TG1 (pYEDA2)", "setting": "[3]; substrate 1.0 mg/ml", "result": "+"}, {"measurement": "Growth after 44 h TG1 (pYEDA2)", "setting": "[3]; substrate 2.0 mg/ml", "result": "−"}]}, {"smiles": "C[C@@H](O)[C@H](N)C(=O)O", "note": "[L-threonine]", "values": [{"measurement": "Growth after 44 h TG1 (pUC19)", "setting": "[1]; substrate 50.0 mg/ml", "result": "−"}, {"measurement": "Growth after 44 h TG1 (pYEDA1)", "setting": "[2]; substrate 50.0 mg/ml", "result": "+"}]}, {"smiles": "N[C@@H](Cc1ccccc1)C(=O)O", "note": "[L-phenylalanine]", "values": [{"measurement": "Growth after 44 h TG1 (pUC19)", "setting": "[1]; substrate 20.0 mg/ml", "result": "−"}, {"measurement": "Growth after 44 h TG1 (pYEDA1)", "setting": "[2]; substrate 20.0 mg/ml", "result": "+"}, {"measurement": "Growth after 44 h TG1 (pYEDA2)", "setting": "[3]; substrate 20.0 mg/ml", "result": "−"}]}, {"smiles": "N[C@@H](CS)C(=O)O", "note": "[L-cysteine]", "values": [{"measurement": "Growth after 44 h TG1 (pUC19)", "setting": "[1]; substrate 7.5 mg/ml", "result": "−"}, {"measurement": "Growth after 44 h TG1 (pYEDA1)", "setting": "[2]; substrate 7.5 mg/ml", "result": "+"}]}, {"smiles": "NC(Cc1c[nH]c2ccc(F)cc12)C(=O)O", "note": "(racemic) [5-fluoro-DL-tryptophane]", "values": [{"measurement": "Growth after 44 h TG1 (pUC19)", "setting": "[1]; substrate 0.0005 mg/ml", "result": "−"}, {"measurement": "Growth after 44 h TG1 (pYEDA1)", "setting": "[2]; substrate 0.0005 mg/ml", "result": "+"}]}, {"smiles": "CN(C)CC(N)C(=O)O", "note": "(racemic) [4-aza-DL-leucine]", "values": [{"measurement": "Growth after 44 h TG1 (pUC19)", "setting": "[1]; substrate 1.0 mg/ml", "result": "−"}, {"measurement": "Growth after 44 h TG1 (pYEDA1)", "setting": "[2]; substrate 1.0 mg/ml", "result": "+"}]}, {"smiles": "N[C@@H](Cc1c[nH]cn1)C(=O)O", "note": "[L-histidine]", "values": [{"measurement": "Growth after 44 h TG1 (pUC19)", "setting": "[1]; substrate 20.0 mg/ml", "result": "−"}, {"measurement": "Growth after 44 h TG1 (pYEDA1)", "setting": "[2]; substrate 20.0 mg/ml", "result": "+"}]}]}
